Measured values published in paper PMC8117302 (Breast Cancer Research : BCR, 2021).
Values joined by “and” are separate entries in the source; they are usually repeats but may differ in a detail not shown here. Equal values may be shown once.

Legend:
MCF7 WT ERα tumors = test: MIND xenograft dose-response study, MCF7 WT ERα; format: in vivo, NSG mice; conditions: vehicle 4%, p = NS
MCF7 Y537S ERα tumors [1] = test: MIND xenograft combination study, MCF7 Y537S ERα, bone histology; format: in vivo, NSG mice; conditions: for tumor metastases to the bone (H&E and IHC staining of bone marrow): Y537S model, 5 mg/kg LAS, in contrast to vehicle control, 5 mg/kg
MCF7 D538G ERα tumors = test: MIND xenograft dose-response study, MCF7 D538G ERα; format: in vivo, NSG mice; conditions: for liver metastases (H&E): D538G mice
MCF7 Y537S ERα tumors [2] = test: MIND xenograft dose-response study, MCF7 Y537S ERα; format: in vivo, NSG mice; conditions: 5 and 10 mg/kg s.c. 5 days/week, at sacrifice 70 days after treatment initiation, vs vehicle
Procedure: Mouse studies were performed in compliance with an approved Institutional Animal Care and Use Committee protocol at the University of Chicago. To better mimic the progression of ductal lesions to invasive disease, a mammary intraductal (MIND) mouse model was used. NSG (NOD.Cg-Prkdc^scid Il2rg^tm1Wjl/SzJ) mice (Jackson Laboratories) were anesthetized by intraperitoneal injections with a ketamine/xylazine (100/5 mg/kg) mixture in PBS prior to cancer cell injections. Single-cell suspensions of 250,000 WT or mutant MCF7 cells were injected in the mammary ducts of inguinal glands as previously described. Tumor cell growth in situ was followed once weekly or biweekly after injection via luminescence imaging with a Xenogen IVIS 200 instrument in the Integrated Small Animal Imaging Research Resource at the University of Chicago. […] Effects were evaluated in the models expressing WT, Y537S, and D538G ERα for monotherapies, and in the model expressing Y537S ERα for combination therapies.
Treatment was initiated 2 to 3 weeks (dose-response study) or at day 20 (combination study) after cancer cell injections. […] Metastases were evaluated with ex vivo imaging of excised long bones, brains, lungs, and livers and quantified by luciferase activity for the combination study.
Tissues were harvested and fixed in formalin. […] Lung and bone metastases were analyzed using the NSI-Elements software from Nikon. […]

breast cancer = conditions: PEARL trial, 5 years of LAS; cited from earlier work
[3] = fulvestrant 5 mg/mouse, 10 legs examined
[4] = lasofoxifene 5 mg/kg, 10 legs examined
[5] = lasofoxifene 10 mg/kg, 10 legs examined
[6] = palbociclib 35 mg/kg, 12 legs examined
[7] = palbociclib 70 mg/kg, 12 legs examined

C[C@]12CC[C@@H]3c4ccc(O)cc4C[C@@H](CCCCCCCCC[S+]([O-])CCCC(F)(F)C(F)(F)F)[C@H]3[C@@H]1CC[C@@H]2O (stereo partly shown) [Fulvestrant]
average percent area of lung metastasis (MCF7 WT ERα tumors; 5 mg/mouse s.c. once per week): 1% | Number of legs with metastases (MCF7 Y537S ERα tumors [1]; [3]): 2 | Number of legs with necrosis (MCF7 Y537S ERα tumors [1]; [3]): 1 | % necrosis (MCF7 Y537S ERα tumors [1]; fulvestrant 5 mg/mouse, leg with necrosis): 18% | Metastases, % of bone marrow, for each leg with metastasis (MCF7 Y537S ERα tumors [1]; fulvestrant 5 mg/mouse, listed as FUL): 1% and 10% | liver metastases (H&E) (MCF7 D538G ERα tumors; FUL 5 mg/mouse s.c. once per week): no liver metastases were observed

Oc1ccc2c(c1)CC[C@H](c1ccccc1)[C@@H]2c1ccc(OCCN2CCCC2)cc1 [Lasofoxifene]
average percent area of lung metastasis (MCF7 WT ERα tumors; all tested doses (1, 5, 10 mg/kg s.c. 5 days/week)): 0.9–1.5% | Reduction in tumor weight (MCF7 Y537S ERα tumors [2]): approximately 60% | reduced risk for invasive ER+ breast cancer (breast cancer): 83% | reduced risk for total breast cancers (breast cancer): 79% | tumor metastases to the bone (H&E and IHC staining of bone marrow) (MCF7 Y537S ERα tumors [1]): No metastases were observed | tumor metastases to the bone (H&E and IHC staining of bone marrow) (MCF7 Y537S ERα tumors [1]; listed as LAS): completely blocked | Number of legs with metastases (MCF7 Y537S ERα tumors [1]; [4]): none | Number of legs with necrosis (MCF7 Y537S ERα tumors [1]; [4]): none | Number of legs with metastases (MCF7 Y537S ERα tumors [1]; [5]): none | Number of legs with necrosis (MCF7 Y537S ERα tumors [1]; [5]): none | liver metastases (H&E) (MCF7 D538G ERα tumors; LAS 1, 5, 10 mg/kg s.c. 5 days/week): no liver metastases were observed | Reduction in tumor weight (MCF7 D538G ERα tumors; D538G, 5 and 10 mg/kg s.c. 5 days/week, at sacrifice 70 days after treatment initiation, vs vehicle): ~50%

CC(=O)c1c(C)c2cnc(Nc3ccc(N4CCNCC4)cn3)nc2n(C2CCCC2)c1=O [Palbociclib]
Number of legs with metastases (MCF7 Y537S ERα tumors [1]; [6]): none | Number of legs with necrosis (MCF7 Y537S ERα tumors [1]; [6]): none | Number of legs with metastases (MCF7 Y537S ERα tumors [1]; [7]): none | Number of legs with necrosis (MCF7 Y537S ERα tumors [1]; [7]): none
